Assay results reported in patent US6849659B2, “Pharmaceutical composition containing citalopram” (H. Lundbeck A/S, priority 2000, dated 2005).
Structures can show the parent of a compound that is named as a salt.

Assay: Particle size distribution (Sympatec Helos laser diffraction)
Format: physicochemical
Details: for Particle size distribution, quantile 5% / Particle size distribution, quantile 10% / Particle size distribution, quantile 50% (median particle size) / Particle size distribution, quantile 90% / Particle size distribution, quantile 95%: Sympatec Helos
Source text: As used herein, “particle size distribution” means the distribution of equivalent spherical diameters as determined by laser diffraction at 1 bar dispersive pressure in a Sympatec Helos equipment. “Median particle size”, correspondingly, means the median of said particle size distribution.

Structure (SMILES) | Particle size distribution, quantile 5% [μm] | Particle size distribution, quantile 10% [μm] | Particle size distribution, quantile 50% (median particle size) [μm] | Particle size distribution, quantile 90% [μm] | Particle size distribution, quantile 95% [μm] | Particle size (product of the process used for the preparation of citalopram hydrobromide (background))
Br.CN(C)CCCC1(c2ccc(F)cc2)OCc2cc(C#N)ccc21 (single isomer, unassigned) [Example 1, Citalopram hydrobromide] | 8.23 | 16.54 | 96.87 | 342.89 | 465.43 | –
Br.CN(C)CCCC1(c2ccc(F)cc2)OCc2cc(C#N)ccc21 (single isomer, unassigned) [Example 2, Citalopram hydrobromide] | 6.67 | 11.97 | 52.70 | 352.23 | 549.42 | –
Br.CN(C)CCCC1(c2ccc(F)cc2)OCc2cc(C#N)ccc21 (single isomer, unassigned) [Example 3, Citalopram hydrobromide] | 0.82 | 1.19 | 14.04 | 72.27 | 96.96 | –
CN(C)CCCC1(c2ccc(F)cc2)OCc2cc(C#N)ccc21 (stereo not shown) [citalopram hydrobromide, reference compound] | – | – | – | – | – | 2-20 μm
